Activity calls are given as the source filed them. No cut-off for these calls is given here.
Experiments:
[1] = molecular target: T1, Cystathionine gamma-lyase (Homo sapiens, UniProt P32929); test: Inhibition of cystathionine gamma-lyase (unknown origin) assessed as reduction in cysteine formation from CPM using L-cystathionine pre-incubated for 15 min followed by L-cystathionine and CPM addition and measured after 7 mins by fluorescence-based primary assay
[2] = molecular target: T1, Cystathionine gamma-lyase; test: Inhibition of cystathionine gamma-lyase (unknown origin)
Homo sapiens = organism: Homo sapiens; test: Selectivity for cystathionine gamma-lyase (unknown origin) over human recombinant CBS
[3] = molecular target: T1, Cystathionine gamma-lyase; test: Reversible inhibition of cystathionine gamma-lyase (unknown origin) assessed as reduction in cysteine formation from CPM using L-cystathionine at 50 uM incubated for 2 hrs followed by dialysis for 18 to 48 hrs by fluorescence-based primary assay
[4] = molecular target: T1, Cystathionine gamma-lyase; test: Inhibition of cystathionine gamma-lyase (unknown origin) assessed as reduction in cysteine formation from CPM at 40 uM using L-cystathionine incubated for 7 mins by fluorescence-based primary assay
[5] = molecular target: T1, Cystathionine gamma-lyase; test: Inhibition of cystathionine gamma-lyase (unknown origin) assessed as reduction in H2S production at 40 uM using AzMC probe by fluorescence based assay
[6] = molecular target: T2, Cystathionine beta-synthase (Homo sapiens) (UniProt P35520); test: Inhibition of human recombinant CBS assessed as reduction in H2S production at 40 uM using AzMC probe by fluorescence based assay
T2 sequence (whole entry): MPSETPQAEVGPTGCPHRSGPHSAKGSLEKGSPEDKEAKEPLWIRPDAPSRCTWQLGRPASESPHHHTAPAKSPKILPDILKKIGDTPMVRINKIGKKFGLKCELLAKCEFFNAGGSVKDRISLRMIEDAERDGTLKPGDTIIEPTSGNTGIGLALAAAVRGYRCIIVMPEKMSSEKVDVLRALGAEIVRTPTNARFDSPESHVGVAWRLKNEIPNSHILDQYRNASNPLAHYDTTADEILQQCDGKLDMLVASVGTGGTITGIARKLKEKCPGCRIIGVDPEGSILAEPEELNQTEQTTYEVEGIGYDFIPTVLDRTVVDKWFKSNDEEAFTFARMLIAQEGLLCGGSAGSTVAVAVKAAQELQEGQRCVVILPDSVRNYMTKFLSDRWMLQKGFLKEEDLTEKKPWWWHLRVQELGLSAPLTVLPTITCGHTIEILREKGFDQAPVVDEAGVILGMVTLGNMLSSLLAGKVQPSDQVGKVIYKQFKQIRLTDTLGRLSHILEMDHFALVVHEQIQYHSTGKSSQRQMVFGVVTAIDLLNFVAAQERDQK

T1 sequence (P32929 whole entry): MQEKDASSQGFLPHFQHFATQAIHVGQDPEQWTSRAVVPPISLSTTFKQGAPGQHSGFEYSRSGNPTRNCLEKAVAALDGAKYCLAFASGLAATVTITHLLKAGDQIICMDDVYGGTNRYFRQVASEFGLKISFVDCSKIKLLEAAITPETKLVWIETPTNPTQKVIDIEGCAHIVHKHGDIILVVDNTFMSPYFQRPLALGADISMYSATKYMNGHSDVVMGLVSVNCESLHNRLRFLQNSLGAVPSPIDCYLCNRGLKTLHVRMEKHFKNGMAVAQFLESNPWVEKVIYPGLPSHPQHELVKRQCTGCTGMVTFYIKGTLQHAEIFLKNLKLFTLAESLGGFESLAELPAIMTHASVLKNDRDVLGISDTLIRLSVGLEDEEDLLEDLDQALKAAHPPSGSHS

| SMILES | IC50 [1] [µM] | further results |
| --- | --- | --- |
| CSC(=S)N/N=C/c1nn(C)cc1Cl | 6 |  |
| CSC(=S)N/N=C/c1cccc(C)n1 | 5 |  |
| NCCO/C=C/[C@H](N)C(=O)O |  | IC50 [2]: 1.1 µM |
| CC(C)(C)c1ccc(NC(=O)CSC(=S)N/N=C/c2ncccc2F)cc1 | 2 |  |
| Cc1ccc(NC(=O)CSC(=S)N/N=C/c2cccnc2)cc1 | 25 |  |
| O=C(CSC(=S)N/N=C/c1ccccn1)Nc1ccccc1 | 6 |  |
| CS/C(S)=N/N=C(\C)c1ccccn1 | > 100 |  |
| N=C1C=C(N)C(=O)c2[nH]c(=O)ccc21 |  | IC50 [2]: 6.3 µM |
| COc1ccc(NC(=O)CSC(=S)N/N=C/c2ccc(Br)cn2)cc1 | > 100 |  |
| COc1ccc(NC(=O)CSC(=S)N/N=C/c2cccc(C)n2)cc1 | 1.9 |  |
| Cn1cc(Cl)c(/C=N/NC(=S)SCC(=O)Nc2ccc(C(C)(C)C)cc2)n1 | 6 |  |
| Cc1ccc(NC(=O)CSC(=S)N/N=C/c2ccccn2)cc1 | 2 |  |
| Cc1cccc(/C=N/NC(=S)SCC(=O)Nc2ccc(C(C)(C)C)cc2)n1 | 6 |  |
| CC(C)(C)c1ccc(NC(=O)CSC(=S)N/N=C/c2ccncc2)cc1 | 40 |  |
| Cc1ccc(NC(=O)CSC(=S)N/N=C/c2cccc(Br)n2)cc1 | 10 |  |
| Cc1ccc(NC(=O)CSC(=S)N/N=C/c2ncccc2F)cc1 | 2 |  |
| CSC(=S)N/N=C/c1ncccc1F | 5 |  |
| O=C(CSC(=S)N/N=C/c1ccccn1)Nc1ccc(F)cc1 | > 100 |  |
| Cc1ccc(NC(=O)CSC(=S)N/N=C/c2nn(C)cc2Cl)cc1 | 3 |  |
| CC(C)(C)c1ccc(NC(=O)CSC(=S)N/N=C/c2cccnc2)cc1 | 12 |  |
| C#CCNC(=O)[C@H]1CSC(=O)N1 |  | IC50 [2]: 30 µM |
| COc1ccc(NC(=O)CSC(=S)N/N=C/c2cscn2)cc1 | 2.1 |  |
| CSC(=S)N/N=C/c1ccccn1 | 6 |  |
| CC(C)(S)[C@@H](N)C(=O)O [PENICILLAMINE] |  | IC50 [2]: 270 µM |
| Cc1ccc(NC(=O)CSC(=S)N/N=C/c2ncccc2C)cc1 | 2.5 |  |
| O=C(CSC(=S)N/N=C/c1ccccn1)Nc1cccc(Br)c1 | > 100 |  |

More lines, main results first:

| IC50 [1] [µM] | SMILES | further results |
| --- | --- | --- |
| 40 | CSC(=S)N/N=C/c1ccncc1 |  |
| > 100 | CSC(=S)N/N=C/c1c[nH]c2ccccc12 |  |
| 3 | CC(C)(C)c1ccc(NC(=O)CSC(=S)N/N=C/c2ccccn2)cc1 |  |
| 3.5 | Cc1ccc(NC(=O)CSC(=S)N/N=C/c2cccc(C)n2)cc1 |  |
| 6 | O=C(CSC(=S)N/N=C/c1ncccc1F)Nc1ccc(C(F)(F)F)cc1 |  |
| 15 | CSC(=S)N/N=C/c1cnccn1 |  |
| 15 | CSC(=S)N/N=C/c1cc[nH]n1 |  |
| 1.2 | COc1ccc(NC(=O)CSC(=S)N/N=C/c2ncccc2F)cc1 | Selectivity ratio (Homo sapiens): 400 |
| 50 | CSC(=S)N/N=C/c1cccnc1 |  |
| > 100 | CSC(=S)N/N=C/c1cc2ccccc2n1C |  |
| 10 | CSC(=S)N/N=C/c1ccc(Br)cn1 |  |
| 6 | CSC(=S)N/N=C/c1ncccc1C |  |
| > 100 | CC(C)(C)c1ccc(NC(=O)CSC(=S)N/N=C/c2cnccn2)cc1 |  |
| 6 | CSC1=NNC(c2ccccn2)S1 (stereo not given) | inhibition [3]: Active; inhibition [4]: > 30%; inhibition [5]: Active; inhibition [6]: inactive |
| 2 | COc1ccc(NC(=O)CSC(=S)N/N=C/c2ccccn2)cc1 |  |
| 12 | CSC(=S)N/N=C/c1cccc(Br)n1 |  |
| 7 | CSC(=S)N/N=C/c1cscn1 |  |
| 15 | CC(C)(C)c1ccc(NC(=O)CSC(=S)N/N=C/c2cccc(Br)n2)cc1 |  |
| 2.7 | COc1ccc(NC(=O)CSC(=S)N/N=C/c2nn(C)cc2Cl)cc1 |  |

— ChEMBL document CHEMBL4130591, “2-Arylidene Hydrazinecarbodithioates as Potent, Selective Inhibitors of Cystathionine γ-Lyase (CSE)” (ACS Med Chem Lett, 2017)
